Values quoted from earlier work, collected in patent US7893091B2, “Combination therapy for the treatment of urinary frequency, urinary urgency and urinary incontinence” (Merck Sharp & Dohme Corp., priority 2005, dated 2011).

Assays:
rats [1] = tested on: rats
isolated bladder strips = conditions: tissue bath
C-fibers [2] = conditions: instilled directly into the bladder
rats [3] = tested on: rats; remark: listed apart in the source
C-fibers [4] = conditions: more potent than capsaicin

Question: What does the source list for `C[C@H](Cc1ccc2c(c1)OC(C(=O)[O-])(C(=O)[O-])O2)NC[C@H](O)c1cccc(Cl)c1.[Na+].[Na+]` [CL316243]?
Answer: voiding interval in the hyperreflexia paradigms (rats [1]; administered intravenously): dose-dependently normalizes voiding interval; spontaneous bladder contractions in the detrusor instability paradigm (rats [1]; administered orally): dose-dependent inhibition; bladder pressure (rats [1]; intravenous administration): reduces bladder pressure; bladder capacity in cystomeric studies (rats [1]; intravenous administration, prolongation of micturition interval without increasing residual urine volume): increases bladder capacity

Question: Which “carbachol or electrical field stimulation induced contractions of isolated bladder strips” value (isolated bladder strips) does the source give for `Cc1ccc(-c2c3n(c(=O)c4ncccc24)CC[C@@H](C)CN(Cc2cc(C(F)(F)F)cc(C(F)(F)F)c2)C3=O)cc1` [TAK-637] here?
Answer: The value was “had no effect”.

Question: What about the “micturition reflex induced by topical application of capsaicin onto the surface of the bladder dome” value (guinea pig) of the same molecule?
Answer: Its value is “inhibited”.

Question: And the “distension-induced rhythmic bladder contractions” value (guinea pig; systemic administration)?
Answer: The value was “decreased the number but not the amplitude”.

Question: What about the “micturition reflex induced by electrical stimulation of the rostral brainstem near the locus coeruleus” value (decerebrate cats; 3 mg/kg i.v.) of the same molecule?
Answer: Its value is “did not inhibit”.

Question: And the voiding efficiency (decerebrate cats; decerebrate cats, 0.1, 0.3, 1 and 3 mg/kg i.v.)?
Answer: Its voiding efficiency is “without any significant reduction”.

Question: And the “increase in bladder capacity (maximal increase)” value (decerebrate cats; decerebrate cats, 0.1, 0.3, 1 and 3 mg/kg i.v., dose-dependent)?
Answer: The value was 94%.

Question: With `COc1cc(CNC(=O)CCCC/C=C/C(C)C)ccc1O` [Capsaicin] as the molecule, how does the “beneficial effects (i.e. increased bladder capacity), share of patients” value (C-fibers [2]) read?
Answer: Its value is ~70 % of patients.

Question: For `CC(=O)NC1(c2ccccc2)CCN(CC[C@H](CN(C)C(=O)c2ccccc2)c2ccc(Cl)c(Cl)c2)CC1` [SR 48968], which “response in cyclophosphamide-induced model of bladder overactivity” value (rats [3]; 10 nmol/rat) is on record?
Answer: The value was “moderate response”.

Question: Which “volume threshold in cyclophosphamide-induced model of bladder overactivity” value (rats [3]; rats, i.t. versus i.v. administration) does the source give for `COc1ccccc1CC(=N)N1C[C@@H]2C(=O)CCC(c3ccccc3)(c3ccccc3)[C@@H]2C1` [RP 67580] here?
Answer: Its value is “increased the volume threshold after i.t., but not i.v. administration”.

Question: For `C=C(C)[C@]12C[C@@H](C)[C@@]34O[C@](Cc5ccccc5)(O[C@@H]1[C@@H]3C=C(COC(=O)Cc1ccc(O)c(OC)c1)C[C@]1(O)C(=O)C(C)=C[C@@H]41)O2` [Resinferatoxin], which “potency relative to capsaicin” value (C-fibers [4]) is on record?
Answer: The value was about 100 fold.
